{"source": "patent US12617783B2", "about": "“Heterocyclic GLP-1R agonists” (BIOMEA FUSION, INC., priority 2024, dated 2026)", "key": {"human GLP-1R": {"target": "T1, human GLP-1R (Homo sapiens, UniProt P43220)", "T1 construct": "host or cells: HEK293", "T1 sequence (P43220 24-463)": "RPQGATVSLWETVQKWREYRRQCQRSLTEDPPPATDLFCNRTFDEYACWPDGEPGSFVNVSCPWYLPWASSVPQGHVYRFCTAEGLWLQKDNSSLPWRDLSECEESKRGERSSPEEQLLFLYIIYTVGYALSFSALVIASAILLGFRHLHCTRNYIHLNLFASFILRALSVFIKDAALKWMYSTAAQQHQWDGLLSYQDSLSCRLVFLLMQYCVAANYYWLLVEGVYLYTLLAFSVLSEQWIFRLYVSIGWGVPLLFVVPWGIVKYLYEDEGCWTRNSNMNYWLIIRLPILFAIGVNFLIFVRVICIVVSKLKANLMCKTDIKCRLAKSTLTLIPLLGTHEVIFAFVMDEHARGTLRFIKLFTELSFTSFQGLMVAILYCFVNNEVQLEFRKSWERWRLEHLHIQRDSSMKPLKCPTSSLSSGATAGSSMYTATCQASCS", "assay": "GLP-1R cAMP assay (Example B1b, HTRF, 30 min at 37°)", "type": "cell-based", "settings": "cAMP accumulation in HEK293 expressing human GLP-1R, no BETP, 30 min at 37° (Method B1b), Table 1", "experimental": "Assay was carried out with HEK293 expressing human GLP-1R using HTRF assay, developed by Wuxi Apptec. The method is a competitive assay between native cAMP produced by the cells and exogenous cAMP labeled with a proprietary dye d2. The tracer binding is visualized by a mAb anti-cAMP labeled with Cryptate. The signal (i.e. energy transfer) is inversely proportional to the concentration of CAMP in either standard or experimental sample. Compounds were tested in the absence of BETP. Ten microliter of cell suspension in assay buffer (5 mM HEPES, 500 μM IBMX, 0.1% BSA) were added to each well (1,000 cells per well) in a low volume 384-well plate for the assay. Serially diluted compounds were added in 100 nL volume to duplicate wells, by Labcyte Echo. GLP-1 (7-37) was used as positive control. Assay plate was incubated for 30 minutes at 37°. Stock of cAMP Detection Solution was prepared by mixing 38 parts of cAMP lysis buffer, 1 part of cAMP-D2, 1 part of anti-cAMP cryptate reagent (Cisbio #62AM4PEJ). Ten microliter of the cAMP Detection Solution was added to each well, and the assay plate was incubated for 1 hour at room temperature in the dark. Plates were read on Envision plate reader. The data were analyzed by ScreenUltra in Dotmatics, with % activation expressed using following formula: (Signal ratio […]*10000−negative control)/(postive control−negative control)*100. Dose response curves were plotted and EC50 values calculated by non-linear regression using 4-parameter fit. The potency (EC50) values for cAMP accumulation in HEK293 cells are reported in the Table 1 below (for compounds ID 610-708)."}, "[1]": {"assay": "Pharmacokinetic analysis in cynomolgus monkeys"}, "[2]": {"assay": "Pharmacokinetic analysis in male SD rats", "type": "in vivo", "experimental": "The rats have free access to food and water. Blood samples were collected pre-dose and 0.083, 0.25, 0.5, 1, 2, 4, 8, 24 hours post dose for i.v. administration group. Blood samples were also collected pre-dose and 0.25, 0.5, 1, 2, 4, 8, and 24 hours after administration in orally dosing group."}, "[3]": {"settings": "male, cynomolgus monkey, plasma, iv, 0.12 mg/kg"}, "[4]": {"settings": "male, cynomolgus monkey, plasma, po, 0.36 mg/kg"}, "[5]": {"settings": "Sprague-Dawley (SD), rat, plasma, 1.0 mg/kg iv"}, "[6]": {"settings": "Sprague-Dawley (SD), rat, plasma, 5.0 mg/kg po"}}}
{"smiles": "CNC(=O)Cc1ccc(-n2ccn(-c3c4c(nn3-c3cc(C)c(F)c(C)c3)C[C@H]3CCC[C@@H]4N3C(=O)c3cc4cc([C@H]5CCOC(C)(C)C5)ccc4n3[C@@]3(c4noc(=O)[nH]4)C[C@@H]3C)c2=O)cc1F", "note": "[Compound 611, 2-(4-(3-((4S,8R)-10-(5-((S)-2,2-dimethyltetrahydro-2H-pyran-4-yl)-1-((1S,2S)-2-methyl-1-(5-oxo-4,5-dihydro-1,2,4-oxadiazol-3-yl)cyclopropyl)-1H-indole-2-carbonyl)-2-(4-fluoro-3,5-dimethylphenyl)-4,5,6,7,8,9-hexahydro-2H-4,8-epiminocycloocta [c]pyrazol-3-yl)-2-oxo-2,3-dihydro-1H-imidazol-1-yl)-2-fluorophenyl)-N-methylacetamide]", "values": [{"measurement": "EC50", "setting": "human GLP-1R", "value": 0.0051, "unit": "µM"}]}
{"smiles": "Cc1cc(-n2nc3c(c2-n2ccn(-c4ccc5c(cnn5C)c4F)c2=O)[C@@H]2CC[C@H](C3)N2C(=O)c2cc3cc([C@H]4CCOC(C)(C)C4)ccc3n2[C@@]2(c3noc(=O)n3C)C[C@@H]2C)cc(C)c1F", "note": "[Compound 613, 3-[(1S,2S)-1-[5-[(4S)-2,2-dimethyltetrahydropyran-4-yl]-2-[(1S,8R)-4-(4-fluoro-3,5-dimethyl-phenyl)-3-[3-(4-fluoro-1-methyl-indazol-5-yl)-2-oxo-imidazol-1-yl]-4,5,11-triazatricyclo[6.2.1.02,6]undeca-2,5-diene-11-carbonyl]indol-1-yl]-2-methyl-cyclopropyl]-4-methyl-1,2,4-oxadiazol-5-one]", "values": [{"measurement": "EC50", "setting": "human GLP-1R", "value": 0.0505, "unit": "µM"}]}
{"smiles": "Cc1cc(-n2nc3c(c2-n2ccn(-c4ccc5c(cnn5C)c4F)c2=O)[C@@H]2CCC[C@H](C3)N2C(=O)c2cc3cc(C4CCOC(C)(C)C4)cc(F)c3n2[C@@]2(c3noc(=O)[nH]3)C[C@@H]2C)cc(C)c1F", "note": "(stereo partly drawn) [Compound 615, 3-((1S,2S)-1-(5-(2,2-dimethyltetrahydro-2H-pyran-4-yl)-7-fluoro-2-((4S,8R)-3-(3-(4-fluoro-1-methyl-1H-indazol-5-yl)-2-oxo-2,3-dihydro-1H-imidazol-1-yl)-2-(4-fluoro-3,5-dimethylphenyl)-4,5,6,7,8,9-hexahydro-2H-4,8-epiminocycloocta [c]pyrazole-10-carbonyl)-1H-indol-1-yl)-2-methylcyclopropyl)-1,2,4-oxadiazol-5 (4H)-one]", "values": [{"measurement": "EC50", "setting": "human GLP-1R", "value": 0.0142, "unit": "µM"}]}
{"smiles": "Cc1cc(-c2nn3c(c2-n2ccn(-c4ccc5c(cnn5C)c4F)c2=O)[C@H](C)N(C(=O)c2cc4cc([C@H]5CCOC(C)(C)C5)ccc4n2[C@@]2(c4noc(=O)[nH]4)C[C@@H]2C)CCC3)cc(C)c1F", "note": "[Compound 703, 3-((1S,2S)-1-(5-((S)-2,2-dimethyltetrahydro-2H-pyran-4-yl)-2-((S)-3-(3-(4-fluoro-1-methyl-1H-indazol-5-yl)-2-oxo-2,3-dihydro-1H-imidazol-1-yl)-2-(4-fluoro-3,5-dimethylphenyl)-4-methyl-5,6,7,8-tetrahydro-4H-pyrazolo[1,5-a][1,4]diazepine-5-carbonyl)-1H-indol-1-yl)-2-methylcyclopropyl)-1,2,4-oxadiazol-5 (4H)-one]", "values": [{"measurement": "EC50", "setting": "human GLP-1R", "value": 0.0024, "unit": "µM"}]}
{"smiles": "Cc1cc(-c2nn3c(c2-n2ccn(-c4ccc5c(cnn5C)c4F)c2=O)[C@@H](C)N(C(=O)c2cc4cc([C@H]5CCOC(C)(C)C5)ccc4n2[C@@]2(c4noc(=O)[nH]4)C[C@@H]2C)CCC3)cc(C)c1F", "note": "[Compound 702, 3-((1S,2S)-1-(5-((S)-2,2-dimethyltetrahydro-2H-pyran-4-yl)-2-((R)-3-(3-(4-fluoro-1-methyl-1H-indazol-5-yl)-2-oxo-2,3-dihydro-1H-imidazol-1-yl)-2-(4-fluoro-3,5-dimethylphenyl)-4-methyl-5,6,7,8-tetrahydro-4H-pyrazolo[1,5-a][1,4]diazepine-5-carbonyl)-1H-indol-1-yl)-2-methylcyclopropyl)-1,2,4-oxadiazol-5 (4H)-one]", "values": [{"measurement": "EC50", "setting": "human GLP-1R", "value": "> 0.1", "unit": "µM"}]}
{"smiles": "Cc1cc(-n2nc3c(c2-n2ccn(-c4ccc5c(cnn5C)c4F)c2=O)[C@@H]2COC[C@H](C3)N2C(=O)c2cc3cc(C4CCOC(C)(C)C4)cc(F)c3n2[C@@]2(c3noc(=O)[nH]3)C[C@@H]2C)cc(C)c1F", "note": "(stereo partly drawn) [Compound 619, 3-((1S,2S)-1-(5-(2,2-dimethyltetrahydro-2H-pyran-4-yl)-7-fluoro-2-((4R,8S)-3-(3-(4-fluoro-1-methyl-1H-indazol-5-yl)-2-oxo-2,3-dihydro-1H-imidazol-1-yl)-2-(4-fluoro-3,5-dimethylphenyl)-2,4,5,7,8,9-hexahydro-4,8-epiminooxocino [5,4-c]pyrazole-10-carbonyl)-1H-indol-1-yl)-2-methylcyclopropyl)-1,2,4-oxadiazol-5(4H)-one]", "values": [{"measurement": "EC50", "setting": "human GLP-1R", "value": 0.0054, "unit": "µM"}]}
{"smiles": "Cc1cc(-n2nc3c(c2-n2ccn(-c4ccc5c(cnn5C)c4F)c2=O)[C@H](C)N(C(=O)c2cc4cc([C@H]5CCOC(C)(C)C5)ccc4n2[C@@]2(c4noc(=O)[nH]4)C[C@@H]2C)CC3)cc(C)c1F", "note": "[Orforglipron, orforglipron, reference compound]", "values": [{"measurement": "Oral F", "setting": "[1]; cynomolgus monkeys, 0.36 mg/kg po vs 0.12 mg/kg iv", "value": 29.4, "unit": "%"}, {"measurement": "AUC(0-inf)", "setting": "[1]; [3]", "value": 517, "unit": "ng·h/mL"}, {"measurement": "Vd", "setting": "[1]; [3]", "value": 0.846, "unit": "L/kg"}, {"measurement": "clearance", "setting": "[1]; [3]", "value": 3.98, "unit": "mL/min/kg"}, {"measurement": "half-life", "setting": "[1]; [3]", "value": 222, "unit": "min"}, {"measurement": "AUC(0-inf)", "setting": "[1]; [4]", "value": 456, "unit": "ng·h/mL"}, {"measurement": "Cmax", "setting": "[1]; [4]", "value": 79.5, "unit": "ng/mL"}, {"measurement": "Tmax", "setting": "[1]; [4]", "value": 1.33, "unit": "h"}, {"measurement": "half-life", "setting": "[1]; [4]", "value": 254, "unit": "min"}, {"measurement": "Oral F", "setting": "[2]; 5.0 mg/kg po vs 1.0 mg/kg iv", "value": 11.2, "unit": "%"}, {"measurement": "AUC(0-inf)", "setting": "[2]; [5]", "value": 6840, "unit": "ng·h/mL"}, {"measurement": "clearance", "setting": "[2]; [5]", "value": 2.47, "unit": "mL/min/kg"}, {"measurement": "half-life", "setting": "[2]; [5]", "value": 488, "unit": "min"}, {"measurement": "Vd", "setting": "[2]; Sprague-Dawley (SD), rat, plasma, 1.0 mg/kg iv, read-out: Vdss", "value": 1.42, "unit": "L/kg"}, {"measurement": "AUC(0-inf)", "setting": "[2]; [6]", "value": 3420, "unit": "ng·h/mL"}, {"measurement": "Cmax", "setting": "[2]; [6]", "value": 240, "unit": "ng/mL"}, {"measurement": "Tmax", "setting": "[2]; [6]", "value": 4, "unit": "h"}, {"measurement": "half-life", "setting": "[2]; [6]", "value": 446, "unit": "min"}]}
{"smiles": "Cc1cc(-n2nc3c(c2-n2ccn(-c4ccc5c(cnn5C)c4F)c2=O)[C@@H]2CCC[C@H](C3)N2C(=O)c2cc3cc([C@@H]4CCOC(C)(C)C4)cc(F)c3n2[C@@]2(c3noc(=O)[nH]3)C[C@@H]2C)cc(C)c1F", "note": "[Compound 701, 3-((1S,2S)-1-(5-((R)-2,2-dimethyltetrahydro-2H-pyran-4-yl)-7-fluoro-2-((4S,8R)-3-(3-(4-fluoro-1-methyl-1H-indazol-5-yl)-2-oxo-2,3-dihydro-1H-imidazol-1-yl)-2-(4-fluoro-3,5-dimethylphenyl)-4,5,6,7,8,9-hexahydro-2H-4,8-epiminocycloocta [c]pyrazole-10-carbonyl)-1H-indol-1-yl)-2-methylcyclopropyl)-1,2,4-oxadiazol-5 (4H)-one]", "values": [{"measurement": "EC50", "setting": "human GLP-1R", "value": "> 0.1", "unit": "µM"}]}
{"smiles": "Cc1cc(-n2nc3c(c2-n2ccn(-c4ccc5c(cnn5C)c4F)c2=O)[C@@H]2COC[C@H](C3)N2C(=O)c2cc3cc([C@@H]4CCOC(C)(C)C4)cc(F)c3n2[C@@]2(c3noc(=O)[nH]3)C[C@@H]2C)cc(C)c1F", "note": "[Compound 706, 3-((1S,2S)-1-(5-((R)-2,2-dimethyltetrahydro-2H-pyran-4-yl)-7-fluoro-2-((4R,8S)-3-(3-(4-fluoro-1-methyl-1H-indazol-5-yl)-2-oxo-2,3-dihydro-1H-imidazol-1-yl)-2-(4-fluoro-3,5-dimethylphenyl)-2,4,5,7,8,9-hexahydro-4,8-epiminooxocino [5,4-c]pyrazole-10-carbonyl)-1H-indol-1-yl)-2-methylcyclopropyl)-1,2,4-oxadiazol-5 (4H)-one]", "values": [{"measurement": "EC50", "setting": "human GLP-1R", "value": 0.059, "unit": "µM"}]}
{"smiles": "Cc1cc(-n2nc3c(c2-n2ccn(-c4ccc5c(cnn5C)c4F)c2=O)[C@@H]2CCC[C@H](C3)N2C(=O)c2cc3cc([C@H]4CCOC(C)(C)C4)cc(F)c3n2[C@@]2(c3noc(=O)[nH]3)C[C@@H]2C)cc(C)c1F", "note": "[Compound 707, 3-((1S,2S)-1-(5-((S)-2,2-dimethyltetrahydro-2H-pyran-4-yl)-7-fluoro-2-((4S,8R)-3-(3-(4-fluoro-1-methyl-1H-indazol-5-yl)-2-oxo-2,3-dihydro-1H-imidazol-1-yl)-2-(4-fluoro-3,5-dimethylphenyl)-4,5,6,7,8,9-hexahydro-2H-4,8-epiminocycloocta [c]pyrazole-10-carbonyl)-1H-indol-1-yl)-2-methylcyclopropyl)-1,2,4-oxadiazol-5 (4H)-one]", "values": [{"measurement": "EC50", "setting": "human GLP-1R", "value": 0.0025, "unit": "µM"}]}
